As usually defined, the Ki is a dissociation constant, usually derived from enzyme kinetics or from competition with a known ligand. A word on the IC50: it is the concentration that inhibits the measured activity by half.

Where only a bound is given, the exact number is not on record here.

Assay [1] addresses T1, Kappa-type opioid receptor (Homo sapiens, UniProt P41145). Put plainly: Displacement of [3H]-diprenorphine from KOR receptor (unknown origin) assessed as inhibition constant in presence of D-Ala-N-MePhe-Gly-ol-enkephalin and D-Ala-DLeu-enkephalin. (In general: Displacement assays read how much labelled ligand stays bound in the presence of the test substance.)
Assay [2] concerns the target T2, Sigma non-opioid intracellular receptor 1 (Homo sapiens, UniProt Q99720). Put plainly: Displacement of [3H]-(+)-pentazocine from sigma1 receptor (unknown origin) assessed as inhibition constant.
Assay [3] concerns the target T3, Sigma intracellular receptor 2 (Homo sapiens, UniProt Q5BJF2). In words: Displacement of [3H]DTG from sigma 2 receptor (unknown origin) assessed as inhibition constant in presence of (+)-SKF10047 by radioligand binding assay.
The target of assay [4] is T3, Sigma intracellular receptor 2. Put plainly: Displacement of [3H]DTG from sigma 2 receptor (unknown origin) assessed as inhibition constant incubated for 120 mins in presence of (+)-SKF10047 by radioligand binding assay.
The target of assay [5] is T4, Sigma non-opioid intracellular receptor 1 (Cavia porcellus, UniProt Q60492). Put plainly: Displacement of [3H]-(+)-pentazocine from sigma1 receptor in guinea pig brain membrane assessed as inhibition constant measured for 150 mins in presence of haloperidol. It is filed as cell membranes.
For assay [6], the target named is Mu-type opioid receptor (Rattus norvegicus, UniProt P33535). In words: Displacement of [ 3H]-naloxone from rat brain membrane mu opioid receptor assessed as inhibition constant by radioligand binding assay. It is filed as cell membranes.
Assay [7] concerns the target T2, Sigma non-opioid intracellular receptor 1. Put plainly: Agonist activity at sigma1 receptor (unknown origin). The settings on record: filed as agonist.
Assay [8] is described as follows: Displacement of 3[H]BTX from rat cerebral cortex sodium channel assessed as inhibition constant. In kind it is tissue-based.
Assay [9] concerns the target Glutathione hydrolase 1 proenzyme (Homo sapiens, UniProt P19440). Put plainly: Inhibition of human GGT1.
Assay [10] deals with Mus musculus. Put plainly: Anticonvulsant activity in mouse assessed as protection against maximal electroshock seizures at 5 mg/kg, sc by maximum electroshock seizure test. In kind it is functional. The settings on record: read-out: ID50 (the source's name). On the technique in general: In the maximal electroshock model the usual endpoint is tonic extension of the hind limbs.

The target of assay [11] is T5, Mu-type opioid receptor (Homo sapiens, UniProt P35372). Put plainly: Displacement of [3H]-Diprenorphine from MOR receptor (unknown origin) assessed as inhibition constant.
Assay [12] deals with Delta-type opioid receptor (Homo sapiens, UniProt P41143). Put plainly: Displacement of [3H]-Diprenorphine from DOR receptor (unknown origin) assessed as inhibition constant.
In assay [13] the target is T1, Kappa-type opioid receptor. Put plainly: Displacement of [3H]-U69593 from KOR receptor (unknown origin) assessed as inhibition constant.
Assay [14] has as its target T3, Sigma intracellular receptor 2.
Description: Inhibition of sigma 2 receptor (unknown origin)
Assay [15] addresses T2, Sigma non-opioid intracellular receptor 1. Put plainly: Inhibition of sigma 1 receptor (unknown origin).
Assay [16] concerns the target T4, Sigma non-opioid intracellular receptor 1. In words: Displacement of [3H]-(+)-pentazocine from sigma1 receptor in guinea pig brain membrane assessed as inhibition constant measured after 120 mins by scintillation counting method. In kind it is cell membranes.
The subject of assay [17] is Mus musculus. In words: Anticonvulsant activity in mouse assessed as protection against maximal electroshock seizures […] by maximum electroshock seizure test. In kind it is functional.
Assay [18] addresses T5, Mu-type opioid receptor. In words: Displacement of [3H]-DAMGO from human MOR receptor assessed as inhibition constant by cheng-prusoff equation assay.
The target of assay [19] is T6, Sigma intracellular receptor 2 (Rattus norvegicus, UniProt Q5U3Y7).
T6 sequence (Q5U3Y7 whole entry): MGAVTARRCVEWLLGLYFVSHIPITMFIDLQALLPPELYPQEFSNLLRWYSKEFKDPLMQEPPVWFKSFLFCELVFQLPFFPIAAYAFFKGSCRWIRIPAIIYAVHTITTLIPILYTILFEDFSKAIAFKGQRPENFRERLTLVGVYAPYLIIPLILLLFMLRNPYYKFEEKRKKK
In words: Displacement of [3H]DTG from sigma 2 receptor in rat liver membranes assessed as inhibition constant presence of haloperidol by scintillation counting analysis. In kind it is cell membranes, Membrane.

Assay [20] in a line: Ratio of Ki for displacement of [3H]DTG from sigma 2 receptor in rat liver membranes assessed as inhibition constant presence of haloperidol by scintillation counting analysis to Ki for displacement of [3H]-(+)-pentazocine from sigma 1 receptor in guinea pig brain membrane assessed as inhibition constant in presence of haloperidol. In kind it is cell membranes.

T4 sequence (Q60492 whole entry): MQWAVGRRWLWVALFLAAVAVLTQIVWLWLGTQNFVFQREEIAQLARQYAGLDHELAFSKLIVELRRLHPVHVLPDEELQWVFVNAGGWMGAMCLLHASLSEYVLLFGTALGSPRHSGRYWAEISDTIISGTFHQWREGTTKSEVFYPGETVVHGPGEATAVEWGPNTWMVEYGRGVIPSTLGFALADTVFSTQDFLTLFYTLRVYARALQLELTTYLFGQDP
T5 sequence (P35372 whole entry): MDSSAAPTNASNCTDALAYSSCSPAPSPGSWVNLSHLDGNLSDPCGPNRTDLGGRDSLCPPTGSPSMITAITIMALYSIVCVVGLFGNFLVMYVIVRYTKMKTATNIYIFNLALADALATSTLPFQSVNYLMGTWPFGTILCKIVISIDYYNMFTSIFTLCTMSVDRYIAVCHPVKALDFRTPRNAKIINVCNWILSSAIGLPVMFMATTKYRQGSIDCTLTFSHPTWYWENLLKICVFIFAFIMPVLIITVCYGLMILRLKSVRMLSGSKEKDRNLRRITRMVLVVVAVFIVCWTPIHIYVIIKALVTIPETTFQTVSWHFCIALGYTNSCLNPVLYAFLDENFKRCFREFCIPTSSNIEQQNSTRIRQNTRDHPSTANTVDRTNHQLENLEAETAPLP
Sequence of Mu-type opioid receptor (Rattus norvegicus, UniProt P33535) (P33535 whole entry): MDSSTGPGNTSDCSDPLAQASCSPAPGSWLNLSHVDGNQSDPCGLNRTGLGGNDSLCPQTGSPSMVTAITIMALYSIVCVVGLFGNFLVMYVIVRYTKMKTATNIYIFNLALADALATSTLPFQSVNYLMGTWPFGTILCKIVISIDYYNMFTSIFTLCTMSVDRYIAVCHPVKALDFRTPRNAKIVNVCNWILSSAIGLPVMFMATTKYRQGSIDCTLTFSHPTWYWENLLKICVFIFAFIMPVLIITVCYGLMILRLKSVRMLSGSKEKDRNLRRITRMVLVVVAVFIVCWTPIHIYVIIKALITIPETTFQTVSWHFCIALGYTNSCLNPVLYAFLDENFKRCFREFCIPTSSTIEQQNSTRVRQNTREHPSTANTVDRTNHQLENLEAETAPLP
T3 sequence (Q5BJF2 whole entry): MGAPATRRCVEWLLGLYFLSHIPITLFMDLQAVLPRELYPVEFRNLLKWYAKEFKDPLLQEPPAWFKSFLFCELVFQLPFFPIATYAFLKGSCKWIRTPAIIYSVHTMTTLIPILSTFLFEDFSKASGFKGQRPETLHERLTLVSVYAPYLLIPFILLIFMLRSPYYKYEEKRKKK
T2 sequence (Q99720 whole entry): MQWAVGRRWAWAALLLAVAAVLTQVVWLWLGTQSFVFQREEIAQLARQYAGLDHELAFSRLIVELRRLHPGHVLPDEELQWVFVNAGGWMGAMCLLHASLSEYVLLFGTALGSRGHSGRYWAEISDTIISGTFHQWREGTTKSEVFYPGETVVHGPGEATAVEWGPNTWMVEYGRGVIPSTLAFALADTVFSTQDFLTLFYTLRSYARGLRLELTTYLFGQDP
Sequence of Delta-type opioid receptor (P41143 whole entry): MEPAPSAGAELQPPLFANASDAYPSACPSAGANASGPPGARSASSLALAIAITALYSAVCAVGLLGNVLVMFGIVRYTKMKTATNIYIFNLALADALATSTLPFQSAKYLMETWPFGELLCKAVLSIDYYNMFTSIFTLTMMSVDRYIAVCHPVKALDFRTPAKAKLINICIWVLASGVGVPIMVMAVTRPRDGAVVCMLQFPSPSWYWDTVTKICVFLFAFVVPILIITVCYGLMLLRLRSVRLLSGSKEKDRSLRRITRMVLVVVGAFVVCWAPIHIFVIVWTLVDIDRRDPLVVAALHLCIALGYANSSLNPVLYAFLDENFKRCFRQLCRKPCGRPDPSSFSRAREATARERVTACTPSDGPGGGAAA
T1 sequence (P41145 whole entry): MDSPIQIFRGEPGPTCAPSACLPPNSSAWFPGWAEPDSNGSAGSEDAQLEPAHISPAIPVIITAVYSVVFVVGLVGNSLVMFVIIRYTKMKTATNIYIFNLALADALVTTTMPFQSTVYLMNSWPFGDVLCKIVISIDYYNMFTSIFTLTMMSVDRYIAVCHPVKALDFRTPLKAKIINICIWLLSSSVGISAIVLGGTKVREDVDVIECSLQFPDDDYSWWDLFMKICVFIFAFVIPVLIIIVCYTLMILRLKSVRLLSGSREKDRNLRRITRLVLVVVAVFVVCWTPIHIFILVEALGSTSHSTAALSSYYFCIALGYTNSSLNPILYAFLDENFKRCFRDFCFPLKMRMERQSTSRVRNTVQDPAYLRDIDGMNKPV
Sequence of Glutathione hydrolase 1 proenzyme (P19440 1-380 limits assumed): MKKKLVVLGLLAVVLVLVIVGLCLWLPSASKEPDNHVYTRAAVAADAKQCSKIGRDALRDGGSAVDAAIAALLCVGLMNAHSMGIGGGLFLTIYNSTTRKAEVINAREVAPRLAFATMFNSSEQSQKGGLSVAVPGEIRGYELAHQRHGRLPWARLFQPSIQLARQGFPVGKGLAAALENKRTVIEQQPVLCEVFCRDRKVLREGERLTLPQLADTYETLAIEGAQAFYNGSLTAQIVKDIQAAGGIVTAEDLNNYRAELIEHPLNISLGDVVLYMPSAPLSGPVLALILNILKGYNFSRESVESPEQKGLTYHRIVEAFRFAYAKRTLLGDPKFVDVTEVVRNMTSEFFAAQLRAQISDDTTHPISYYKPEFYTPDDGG
Sequence of Glutathione hydrolase 1 proenzyme (P19440 381-569 limits assumed): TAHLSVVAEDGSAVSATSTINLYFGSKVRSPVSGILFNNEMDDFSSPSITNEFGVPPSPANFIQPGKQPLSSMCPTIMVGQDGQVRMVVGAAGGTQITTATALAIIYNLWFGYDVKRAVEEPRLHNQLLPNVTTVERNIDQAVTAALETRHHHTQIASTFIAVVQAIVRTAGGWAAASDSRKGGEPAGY

`C[C@@H]1[C@@H]2Cc3ccccc3[C@]1(C)CCN2CCN1CCCC1`: the Ki worked out at 6400 nM in [1], 34 nM in assay [2] and 42 nM in assay [3].

On to `C[C@@H]1[C@@H]2Cc3ccc(O)cc3[C@]1(C)CCN2CCN1CCOCC1`, for which the Ki in [4] stood at 300 nM; in assay [5] it was 13.4 nM; on Mu-type opioid receptor [6], 8170 nM. For the same compound, the ED50 in [7] came to 0.82 mg/kg.

In the case of `C[C@@H](CN1CC[C@@]2(C)c3cccc(O)c3C[C@@H]1C2(C)C)OCc1ccccc1` [CROBENETINE], the Ki in assay [8] came out at 43 nM. The compound further yielded a half-inhibitory concentration (IC50) in assay [9] of 322 nM. Also, the ED50 with Mus musculus [10] was found to be 6.1 mg/kg.

As for `COC(=O)C1(c2ccccc2)CC1CN1CC[C@@]2(C)c3cc(O)ccc3C[C@H]1[C@H]2C` (mixture of isomers), the Ki in assay [2] was 1380 nM; at Mu-type opioid receptor [11], greater than 1000 nM; in assay [12], greater than 1000 nM; in assay [13], greater than 1000 nM.

Compound `CC(C)=CCN1CCN(c2ccc3c(c2)[C@H]2C[C@@H]3CCN2C(=O)OCc2ccccc2)CC1` showed a Ki in assay [14] of 23 nM.

`COC(=O)[C@]1(c2ccccc2)C[C@@H]1CN1CC[C@@]2(C)c3cc(O)ccc3C[C@H]1[C@H]2C`: the Ki is 66.7 nM in [2], greater than 25000 nM on Mu-type opioid receptor [11], greater than 1000 nM in assay [12] and greater than 1000 nM in [13].

Take `COC(=O)[C@]1(c2ccccc2)C[C@@H]1CN1CC[C@]2(C)c3cc(O)ccc3C[C@@H]1[C@@H]2C`: the Ki was greater than 25000 nM on Mu-type opioid receptor [11], greater than 25000 nM in assay [12] and 240 nM in [13].

In assay [15], `C=CCCCCN1CC[C@]2(C)c3cc(O)ccc3C[C@@H]1[C@@H]2C` showed a Ki of 80 nM.

Regarding `C[C@@H]1[C@@H]2Cc3ccc(O)cc3[C@]1(C)CCN2Cc1ccc(F)cc1`, the Ki in assay [16] came out at 1.45 nM.

Regarding `CO[C@@H](C)CN1CC[C@@]2(C)c3cccc(O)c3C[C@@H]1C2(C)C`, in assay [8], the Ki was 789 nM. In assay [9], this compound came in with an IC50 of 39 nM. For the same compound, the ED50 in the assay with Mus musculus [17] worked out at 1 mg/kg.

As to `C[C@@H]1[C@@H]2Cc3ccc(O)cc3[C@]1(C)CCN2Cc1ccccc1F`, the inhibition constant Ki in assay [16] was determined as 0.97 nM.

As to `COC(=O)[C@@]1(c2ccccc2)C[C@H]1CN1CC[C@@]2(C)c3cc(O)ccc3C[C@H]1[C@H]2C`, the Ki in assay [2] was 75 nM; at Mu-type opioid receptor [11] it was greater than 1000 nM; in assay [12], greater than 1000 nM; in assay [13], greater than 1000 nM.

`COC(=O)[C@]1(c2ccc(Cl)cc2)C[C@@H]1CN1CC[C@]2(C)c3cc(O)ccc3C[C@@H]1[C@@H]2C`: the Ki in [2] is 1050 nM; at Mu-type opioid receptor [11], greater than 25000 nM; in [12] it was greater than 25000 nM; in assay [13], 0.41 nM.

As to `C=CCN1CC[C@@]2(C)c3cc(O)ccc3C[C@H]1[C@H]2C`, the Ki at Mu-type opioid receptor [18] was greater than 10000 nM; in [2] it was 169 nM; at Mu-type opioid receptor [11], greater than 1000 nM; in assay [12] it was greater than 1000 nM; in assay [13] it was greater than 1000 nM.

As for `C[C@@H]1[C@@H]2Cc3ccc(O)cc3[C@]1(C)CCN2CCN1CCCC1`, the Ki in assay [4] came to 260 nM; in assay [5] it was 7.4 nM; on Mu-type opioid receptor [6], 3800 nM.

In the case of `CC(C)=CCN1CC[C@@]2(C)c3cc(O)ccc3C[C@H]1[C@H]2C`, on Mu-type opioid receptor [6], the Ki came out at 2370 nM.

In the case of `C[C@@H]1[C@@H]2Cc3ccc(O)cc3[C@]1(C)CCN2CCN1CCCCCC1`, the Ki was 151 nM in [4], 20.1 nM in assay [5] and 9130 nM at Mu-type opioid receptor [6].

In assay [15], `C=CCN1CC[C@]2(C)c3cc(O)ccc3C[C@@H]1[C@@H]2C` returned a Ki of 3200 nM.

The compound `C=CCCCN1CC[C@]2(C)c3cc(O)ccc3C[C@@H]1[C@@H]2C` came in with a Ki in [15] of 180 nM.

For `CC(C)[C@@H]1[C@@H]2CCN(Cc3ccccc3)[C@@H]1Cc1ccccc12`, the Ki is 31.7 nM in assay [5] and 133 nM in [19]. Also, the Ratio Ki in [20] amounted to 4.

Values taken from ChEMBL document CHEMBL5260834, “Benzomorphan skeleton, a versatile scaffold for different targets: A comprehensive review” (Eur J Med Chem, 2018).
